Data reported in the supplement of paper PMC10307832.

Experiments:
Test in all cases: relative viability (nuclei count vs DMSO), 5 days (fraction); higher = more cells survive
NCI-H460 = system: NCI-H460
Summary of the method: (§1)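 After 5 days of treatment, lung cancer cells in 1536-well plates were fixed and stained in a single step (final 0.05% Triton X-100, 1% formaldehyde, 1 ug/ml Hoechst) and their nuclei counted on 4× images. Treatment had been applied by pin tool the day after seeding as one drug alone or as a fixed anchor-drug dose with five library-drug doses (not always all listed) in √10 steps. Relative viability is the nuclei count of treated wells divided by that of vehicle wells, and values are medians of duplicate plates.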

HCC-78 = system: HCC-78
Summary of the method: as §1

NCI-H522 = system: NCI-H522
Summary of the method: as §1

NCI-H2009 = system: NCI-H2009
Summary of the method: as §1

NCI-H661 = system: NCI-H661
Summary of the method: as §1

NCI-H2342 = system: NCI-H2342
Summary of the method: as §1

NCI-H1648 = system: NCI-H1648
Summary of the method: as §1

NCI-H358 = system: NCI-H358
Summary of the method: as §1

Nc1ccn([C@@H]2O[C@H](CO)[C@@H](O)[C@@H]2O)c(=O)n1 [Cytarabine] + CC(=O)c1c(C)c2cnc(Nc3ccc(N4CCNCC4)cn3)nc2n(C2CCCC2)c1=O [Palbociclib] (partner 0.5 µM)
relative viability (NCI-H460; first compound 0.005 µM): 0.156
relative viability (NCI-H460; first compound 0.01581 µM): 0.0617
relative viability (NCI-H460; first compound 0.05 µM): 0.0499
relative viability (NCI-H460; first compound 0.1581 µM): 0.0475
relative viability (NCI-H460; first compound 0.5 µM): 0.044
relative viability (HCC-78; first compound 0.005 µM): 0.492
relative viability (HCC-78; first compound 0.01581 µM): 0.42
relative viability (HCC-78; first compound 0.05 µM): 0.393
relative viability (HCC-78; first compound 0.1581 µM): 0.366
relative viability (HCC-78; first compound 0.5 µM): 0.361
relative viability (NCI-H522; first compound 0.005 µM): 1.09
relative viability (NCI-H522; first compound 0.01581 µM): 0.872
relative viability (NCI-H522; first compound 0.05 µM): 0.824
relative viability (NCI-H522; first compound 0.1581 µM): 0.767
relative viability (NCI-H522; first compound 0.5 µM): 0.595
relative viability (NCI-H2009; first compound 0.005 µM): 0.211
relative viability (NCI-H2009; first compound 0.01581 µM): 0.192
relative viability (NCI-H2009; first compound 0.05 µM): 0.187
relative viability (NCI-H2009; first compound 0.1581 µM): 0.154
relative viability (NCI-H2009; first compound 0.5 µM): 0.125
relative viability (NCI-H661; first compound 0.005 µM): 0.429
relative viability (NCI-H661; first compound 0.01581 µM): 0.393
relative viability (NCI-H661; first compound 0.05 µM): 0.377
relative viability (NCI-H661; first compound 0.1581 µM): 0.353
relative viability (NCI-H661; first compound 0.5 µM): 0.251
relative viability (NCI-H2342; first compound 0.005 µM): 0.525
relative viability (NCI-H2342; first compound 0.01581 µM): 0.557
relative viability (NCI-H2342; first compound 0.05 µM): 0.502
relative viability (NCI-H2342; first compound 0.1581 µM): 0.467
relative viability (NCI-H2342; first compound 0.5 µM): 0.435
relative viability (NCI-H1648; first compound 0.005 µM): 0.29
relative viability (NCI-H1648; first compound 0.01581 µM): 0.283
relative viability (NCI-H1648; first compound 0.05 µM): 0.263
relative viability (NCI-H1648; first compound 0.1581 µM): 0.308
relative viability (NCI-H1648; first compound 0.5 µM): 0.273
relative viability (NCI-H358; first compound 0.005 µM): 0.126
relative viability (NCI-H358; first compound 0.01581 µM): 0.115
relative viability (NCI-H358; first compound 0.05 µM): 0.0934
relative viability (NCI-H358; first compound 0.1581 µM): 0.0712
relative viability (NCI-H358; first compound 0.5 µM): 0.0692

Nc1ccn([C@@H]2O[C@H](CO)[C@@H](O)[C@@H]2O)c(=O)n1 [Cytarabine] + CC(=O)Nc1cccc(-n2c(=O)n(C3CC3)c(=O)c3c(Nc4ccc(I)cc4F)n(C)c(=O)c(C)c32)c1 [Trametinib] (partner 0.02 µM)
relative viability (NCI-H460; first compound 0.005 µM): 0.13
relative viability (NCI-H460; first compound 0.01581 µM): 0.111
relative viability (NCI-H460; first compound 0.05 µM): 0.103
relative viability (NCI-H460; first compound 0.1581 µM): 0.0544
relative viability (NCI-H460; first compound 0.5 µM): 0.0417
relative viability (HCC-78; first compound 0.005 µM): 1.06
relative viability (HCC-78; first compound 0.01581 µM): 0.688
relative viability (HCC-78; first compound 0.05 µM): 0.575
relative viability (HCC-78; first compound 0.1581 µM): 0.478
relative viability (HCC-78; first compound 0.5 µM): 0.37
relative viability (NCI-H522; first compound 0.005 µM): 0.823
relative viability (NCI-H522; first compound 0.01581 µM): 0.75
relative viability (NCI-H522; first compound 0.05 µM): 0.65
relative viability (NCI-H522; first compound 0.1581 µM): 0.589
relative viability (NCI-H522; first compound 0.5 µM): 0.515
relative viability (NCI-H2009; first compound 0.005 µM): 0.271
relative viability (NCI-H2009; first compound 0.01581 µM): 0.25
relative viability (NCI-H2009; first compound 0.05 µM): 0.249
relative viability (NCI-H2009; first compound 0.1581 µM): 0.238
relative viability (NCI-H2009; first compound 0.5 µM): 0.137
relative viability (NCI-H661; first compound 0.005 µM): 0.574
relative viability (NCI-H661; first compound 0.01581 µM): 0.571
relative viability (NCI-H661; first compound 0.05 µM): 0.582
relative viability (NCI-H661; first compound 0.1581 µM): 0.435
relative viability (NCI-H661; first compound 0.5 µM): 0.385
relative viability (NCI-H2342; first compound 0.005 µM): 0.779
relative viability (NCI-H2342; first compound 0.01581 µM): 0.825
relative viability (NCI-H2342; first compound 0.05 µM): 0.803
relative viability (NCI-H2342; first compound 0.1581 µM): 0.579
relative viability (NCI-H2342; first compound 0.5 µM): 0.646
relative viability (NCI-H1648; first compound 0.005 µM): 0.419
relative viability (NCI-H1648; first compound 0.01581 µM): 0.4
relative viability (NCI-H1648; first compound 0.05 µM): 0.44
relative viability (NCI-H1648; first compound 0.1581 µM): 0.36
relative viability (NCI-H1648; first compound 0.5 µM): 0.373
relative viability (NCI-H358; first compound 0.005 µM): 0.126
relative viability (NCI-H358; first compound 0.01581 µM): 0.108
relative viability (NCI-H358; first compound 0.05 µM): 0.103
relative viability (NCI-H358; first compound 0.1581 µM): 0.076
relative viability (NCI-H358; first compound 0.5 µM): 0.0812

Cc1sc2c(c1C)C(c1ccc(Cl)cc1)=N[C@@H](CC(=O)OC(C)(C)C)c1nnc(C)n1-2 [JQ1] + CC(=O)c1c(C)c2cnc(Nc3ccc(N4CCNCC4)cn3)nc2n(C2CCCC2)c1=O [Palbociclib] (partner 0.5 µM)
relative viability (NCI-H460; first compound 0.04 µM): 0.172
relative viability (NCI-H460; first compound 0.1265 µM): 0.0585
relative viability (NCI-H460; first compound 0.4 µM): 0.0456
relative viability (NCI-H460; first compound 1.265 µM): 0.0198
relative viability (NCI-H460; first compound 4 µM): 0.0263
relative viability (HCC-78; first compound 0.04 µM): 0.489
relative viability (HCC-78; first compound 0.1265 µM): 0.523
relative viability (HCC-78; first compound 0.4 µM): 0.511
relative viability (HCC-78; first compound 1.265 µM): 0.469
relative viability (HCC-78; first compound 4 µM): 0.513
relative viability (NCI-H522; first compound 0.04 µM): 1.04
relative viability (NCI-H522; first compound 0.1265 µM): 0.881
relative viability (NCI-H522; first compound 0.4 µM): 0.697
relative viability (NCI-H522; first compound 1.265 µM): 0.478
relative viability (NCI-H522; first compound 4 µM): 0.39
relative viability (NCI-H2009; first compound 0.04 µM): 0.181
relative viability (NCI-H2009; first compound 0.1265 µM): 0.137
relative viability (NCI-H2009; first compound 0.4 µM): 0.199
relative viability (NCI-H2009; first compound 1.265 µM): 0.158
relative viability (NCI-H2009; first compound 4 µM): 0.156
relative viability (NCI-H661; first compound 0.04 µM): 0.406
relative viability (NCI-H661; first compound 0.1265 µM): 0.369
relative viability (NCI-H661; first compound 0.4 µM): 0.424
relative viability (NCI-H661; first compound 1.265 µM): 0.406
relative viability (NCI-H661; first compound 4 µM): 0.397
relative viability (NCI-H2342; first compound 0.04 µM): 0.526
relative viability (NCI-H2342; first compound 0.1265 µM): 0.501
relative viability (NCI-H2342; first compound 0.4 µM): 0.535
relative viability (NCI-H2342; first compound 1.265 µM): 0.574
relative viability (NCI-H2342; first compound 4 µM): 0.538
relative viability (NCI-H1648; first compound 0.04 µM): 0.259
relative viability (NCI-H1648; first compound 0.1265 µM): 0.303
relative viability (NCI-H1648; first compound 0.4 µM): 0.332
relative viability (NCI-H1648; first compound 1.265 µM): 0.358
relative viability (NCI-H1648; first compound 4 µM): 0.309
relative viability (NCI-H358; first compound 0.04 µM): 0.168
relative viability (NCI-H358; first compound 0.1265 µM): 0.163
relative viability (NCI-H358; first compound 0.4 µM): 0.153
relative viability (NCI-H358; first compound 1.265 µM): 0.145
relative viability (NCI-H358; first compound 4 µM): 0.155

Cc1sc2c(c1C)C(c1ccc(Cl)cc1)=N[C@@H](CC(=O)OC(C)(C)C)c1nnc(C)n1-2 [JQ1] + Nc1nc2[nH]cc(CCc3ccc(C(=O)N[C@@H](CCC(=O)O)C(=O)O)cc3)c2c(=O)[nH]1 [Pemetrexed] (partner 0.2 µM)
relative viability (NCI-H460; first compound 0.04 µM): 0.0603
relative viability (NCI-H460; first compound 0.1265 µM): 0.0567
relative viability (NCI-H460; first compound 0.4 µM): 0.0624
relative viability (NCI-H460; first compound 1.265 µM): 0.0611
relative viability (NCI-H460; first compound 4 µM): 0.07
relative viability (HCC-78; first compound 0.04 µM): 0.87
relative viability (HCC-78; first compound 0.1265 µM): 0.957
relative viability (HCC-78; first compound 0.4 µM): 0.977
relative viability (HCC-78; first compound 1.265 µM): 0.91
relative viability (HCC-78; first compound 4 µM): 0.866
relative viability (NCI-H522; first compound 0.04 µM): 0.929
relative viability (NCI-H522; first compound 0.1265 µM): 0.877
relative viability (NCI-H522; first compound 0.4 µM): 0.54
relative viability (NCI-H522; first compound 1.265 µM): 0.59
relative viability (NCI-H522; first compound 4 µM): 0.444
relative viability (NCI-H2009; first compound 0.04 µM): 0.958
relative viability (NCI-H2009; first compound 0.1265 µM): 0.795
relative viability (NCI-H2009; first compound 0.4 µM): 0.954
relative viability (NCI-H2009; first compound 1.265 µM): 0.459
relative viability (NCI-H2009; first compound 4 µM): 0.234
relative viability (NCI-H661; first compound 0.04 µM): 0.914
relative viability (NCI-H661; first compound 0.1265 µM): 0.876
relative viability (NCI-H661; first compound 0.4 µM): 0.916
relative viability (NCI-H661; first compound 1.265 µM): 0.482
relative viability (NCI-H661; first compound 4 µM): 0.423
relative viability (NCI-H2342; first compound 0.04 µM): 0.805
relative viability (NCI-H2342; first compound 0.1265 µM): 0.73
relative viability (NCI-H2342; first compound 0.4 µM): 0.852
relative viability (NCI-H2342; first compound 1.265 µM): 0.781
relative viability (NCI-H2342; first compound 4 µM): 0.617
relative viability (NCI-H1648; first compound 0.04 µM): 0.726
relative viability (NCI-H1648; first compound 0.1265 µM): 0.817
relative viability (NCI-H1648; first compound 0.4 µM): 0.683
relative viability (NCI-H1648; first compound 1.265 µM): 0.54
relative viability (NCI-H1648; first compound 4 µM): 0.258
relative viability (NCI-H358; first compound 0.04 µM): 0.185
relative viability (NCI-H358; first compound 0.1265 µM): 0.198
relative viability (NCI-H358; first compound 0.4 µM): 0.199
relative viability (NCI-H358; first compound 1.265 µM): 0.16
relative viability (NCI-H358; first compound 4 µM): 0.153
